Measured values published in patent US20260055104A1, “CRYSTAL FORM OF HETEROARYL DERIVATIVE PARP INHIBITOR AND USE THEREOF” (priority 2022, published 2026).

How the values were obtained:
[1] = Pharmacokinetic test in rats; format: in vivo, SD rats; conditions: rat, i.g. 10 mg/kg
Method: • 1.1 Experimental animals: male SD rats, about 220 g, 6-8 weeks old, 6 rats/compound. Purchased from Chengdu Ddossy Experimental Animals Co., Ltd. • 1.2 Experimental design: on the day of the experiment, 6 SD rats were randomly grouped according to their body weights. The animals were fasted with water available for 12 to 14 h one day before the administration and were fed 4 h after the administration. [table] Before and after the administration, 0.15 mL of blood was taken from the orbit of the animals under isoflurane anesthesia and placed in an EDTAK2 centrifuge tube. The blood was centrifuged at 5000 rpm and 4° C. for 10 min to collect plasma. The blood collection time points for the intravenous administration group and intragastric administration group were: 0, 5 min, 15 min, 30 min, 1 h, 2 h, 4 h, 6 h, 8 h and 24 h. Before analysis and detection, all samples were stored at −80° C. The samples were analyzed quantitatively by LC-MS/MS.

[2] = system: MDA-MB-436 subcutaneous transplanted tumor; assay: Mouse MDA-MB-436 subcutaneous in vivo transplanted tumor model; parameters: species or system BALB/c nude mice
Method: Human breast cancer cells MDA-MB-436 were placed in Leibovitz's L-15 medium (supplemented with 10 μg/mL insulin, 16 μg/mL glutathione, 10% fetal bovine serum and 1% penicillin-streptomycin solution) and cultured at 37° C. Conventional digestion treatment with trypsin was performed twice a week for passage. When the cell saturation was 80%-90%, and the number reached the requirement, the cells were harvested, counted, and inoculated. BALB/c nude mice (from Beijing Vital River Laboratory Animal Technology Co., Ltd.) were subcutaneously inoculated with 0.2 mL (10×10^6) of MDA-MB-436 cells (plus matrigel, with the volume ratio of 1:1) on the right back. When the average tumor volume reached about 180 mm^3, grouping and administration were performed (marked as Day 0). The solvent group was given 5% DMSO, 30% PEG400 and 65% of 20% sulfobutyl-β-cyclodextrin solution, and the administration group was given the compound (Day 0-Day 10:1 mg/kg; Day 11-Day 28:0.1 mg/kg). The administration frequency was once a day, the administration cycle was 29 days, and the drug withdrawal observation period was set to 14 days. After grouping, the tumor diameter was measured twice a week with a vernier caliper. The formula for calculating the tumor volume was: V=0.5×a×b^2, where a and b represented the long and short diameters of the tumor, respectively.

[3] = system: Human breast cancer cells MDA-MB-436; assay: MDA-MB-436 cell activity test (CellTiter-Glo); format: cell-based; conditions: 168 h, MDA-MB-436, 7 days incubation
Method: On day 1, the cells in the exponential growth phase were collected, and the cell suspension was adjusted to 4000 cells/135 μL with the culture medium. 135 μL of the cell suspension was added to each well of a 96-well cell culture plate and incubated overnight. On day 2, compounds at different concentrations were added, and the plate was placed in the incubator and incubated for 7 days. After the incubation was completed, according to operation instructions for a CellTiter-Glo kit (Promega, G7573), 75 μL of CTG solution, which had already been pre-melted and equilibrated to room temperature, was added to each well, and the mixture was uniformly mixed for 2 min using a microplate shaker. The plate was placed at room temperature for 10 min, and then […] signal values were measured using an Envision2104 plate reader (PerkinElmer). […] The IC50 value was calculated using GraphPad Prism software.

[4] = Stability test of crystal form (purity by HPLC); format: physicochemical
Method: Samples were taken and tested at 92.5% RH, 40° C. and 60° C. respectively. The purity (represented by a percentage) was detected by HPLC.
With regard to methods for preparing test solutions and conditions for detecting purity by HPLC, reference was made to Tables 13 and 14.

SMILES: CCc1cc2ncc(CN3CCN(c4ccc(C(=O)NC5CC5)nc4)CC3)cc2[nH]c1=O [Compound I, N-cyclopropyl-5-(4-((7-ethyl-6-oxo-5,6-dihydro-1,5-naphthyridin-3-yl)methyl)piperazin-1-yl)pyridine carboxamide]
- F [1]: 98.8%
- tumor growth after the drug withdrawal ([2]; 14 days drug withdrawal observation): did not grow again
- body weight of the animals ([2]; Day 0-10 1 mg/kg, Day 11-28 0.1 mg/kg, once a day): no significant decrease
- TGI ([2]; after 28 days of administration, Day 0-10 1 mg/kg, Day 11-28 0.1 mg/kg, once a day): 119%
- inhibition at 10 µM ([3]; 10 μM, read-out: Max inh. % 10 μM): 89.4%
- IC50 [3]: 2 nM

SMILES: CCc1cc2ncc(CN3CCN(c4ccc(C(=O)NC5CC5)nc4)CC3)cc2[nH]c1=O [crystal form G, N-cyclopropyl-5-(4-((7-ethyl-6-oxo-5,6-dihydro-1,5-naphthyridin-3-yl)methyl)piperazin-1-yl)pyridine carboxamide]
- Maximum individual impurity ([4]; 0 d): 0.494%
- RRT 0.31 impurity ([4]; 0 d): 0.494%
- RRT 0.36 impurity ([4]; 0 d): 0.071%
- RRT 0.49 impurity ([4]; 0 d): 0.170%
- RRT 0.72 impurity ([4]; 0 d): 0.248%
- RRT 1.00 (purity by HPLC) ([4]; 0 d): 98.425%
- RRT 1.14 impurity ([4]; 0 d): 0.065%
- RRT 1.33 impurity ([4]; 0 d): 0.079%
- Total impurity ([4]; 0 d): 1.575%
- Maximum individual impurity ([4]; 40° C.-6 d): 0.438%
- RRT 0.31 impurity ([4]; 40° C.-6 d): 0.438%
- RRT 0.36 impurity ([4]; 40° C.-6 d): 0.097%
- RRT 0.49 impurity ([4]; 40° C.-6 d): 0.195%
- RRT 0.72 impurity ([4]; 40° C.-6 d): 0.241%
- RRT 1.00 (purity by HPLC) ([4]; 40° C.-6 d): 98.494%
- RRT 1.14 impurity ([4]; 40° C.-6 d): 0.071%
- RRT 1.33 impurity ([4]; 40° C.-6 d): 0.069%
- Total impurity ([4]; 40° C.-6 d): 1.506%
- Maximum individual impurity ([4]; 40° C.-10 d): 0.507%
- RRT 0.31 impurity ([4]; 40° C.-10 d): 0.507%
- RRT 0.36 impurity ([4]; 40° C.-10 d): 0.100%
- RRT 0.49 impurity ([4]; 40° C.-10 d): 0.194%
- RRT 0.72 impurity ([4]; 40° C.-10 d): 0.232%
- RRT 1.00 (purity by HPLC) ([4]; 40° C.-10 d): 98.459%
- RRT 1.14 impurity ([4]; 40° C.-10 d): 0.069%
- RRT 1.33 impurity ([4]; 40° C.-10 d): 0.061%
- Total impurity ([4]; 40° C.-10 d): 1.541%
- Maximum individual impurity ([4]; 40° C.-30 d): 0.467%
- RRT 0.31 impurity ([4]; 40° C.-30 d): 0.467%
- RRT 0.36 impurity ([4]; 40° C.-30 d): 0.115%
- RRT 0.49 impurity ([4]; 40° C.-30 d): 0.144%
- RRT 0.72 impurity ([4]; 40° C.-30 d): 0.252%
- RRT 1.00 (purity by HPLC) ([4]; 40° C.-30 d): 98.519%
- RRT 1.14 impurity ([4]; 40° C.-30 d): 0.077%
- RRT 1.33 impurity ([4]; 40° C.-30 d): 0.060%
- Total impurity ([4]; 40° C.-30 d): 1.481%
- Maximum individual impurity ([4]; 60° C.-6 d): 0.452%
- RRT 0.31 impurity ([4]; 60° C.-6 d): 0.452%
- RRT 0.36 impurity ([4]; 60° C.-6 d): 0.097%
- RRT 0.49 impurity ([4]; 60° C.-6 d): 0.193%
- RRT 0.72 impurity ([4]; 60° C.-6 d): 0.229%
- RRT 1.00 (purity by HPLC) ([4]; 60° C.-6 d): 98.522%
- RRT 1.14 impurity ([4]; 60° C.-6 d): 0.070%
- RRT 1.33 impurity ([4]; 60° C.-6 d): 0.064%
- Total impurity ([4]; 60° C.-6 d): 1.478%
- Maximum individual impurity ([4]; 60° C.-10 d): 0.498%
- RRT 0.31 impurity ([4]; 60° C.-10 d): 0.498%
- RRT 0.36 impurity ([4]; 60° C.-10 d): 0.103%
- RRT 0.49 impurity ([4]; 60° C.-10 d): 0.206%
- RRT 0.72 impurity ([4]; 60° C.-10 d): 0.247%
- RRT 1.00 (purity by HPLC) ([4]; 60° C.-10 d): 98.447%
- RRT 1.14 impurity ([4]; 60° C.-10 d): 0.068%
- RRT 1.33 impurity ([4]; 60° C.-10 d): 0.069%
- Total impurity ([4]; 60° C.-10 d): 1.553%
- Maximum individual impurity ([4]; 60° C.-30 d): 0.457%
- RRT 0.31 impurity ([4]; 60° C.-30 d): 0.457%
- RRT 0.36 impurity ([4]; 60° C.-30 d): 0.112%
- RRT 0.49 impurity ([4]; 60° C.-30 d): 0.145%
- RRT 0.72 impurity ([4]; 60° C.-30 d): 0.244%
- RRT 1.00 (purity by HPLC) ([4]; 60° C.-30 d): 98.499%
- RRT 1.14 impurity ([4]; 60° C.-30 d): 0.084%
- RRT 1.33 impurity ([4]; 60° C.-30 d): 0.056%
- Total impurity ([4]; 60° C.-30 d): 1.501%
- chemical stability ([4]; 92.5% RH, 40° C. and 60° C., up to 30 d): good chemical stability
- Maximum individual impurity ([4]; 92.5% RH-6 d): 0.468%
- RRT 0.31 impurity ([4]; 92.5% RH-6 d): 0.468%
- RRT 0.36 impurity ([4]; 92.5% RH-6 d): 0.107%
- RRT 0.49 impurity ([4]; 92.5% RH-6 d): 0.191%
- RRT 0.72 impurity ([4]; 92.5% RH-6 d): 0.244%
- RRT 1.00 (purity by HPLC) ([4]; 92.5% RH-6 d): 98.503%
- RRT 1.14 impurity ([4]; 92.5% RH-6 d): 0.068%
- RRT 1.33 impurity ([4]; 92.5% RH-6 d): 0.066%
- Total impurity ([4]; 92.5% RH-6 d): 1.497%
- Maximum individual impurity ([4]; 92.5% RH-10 d): 0.518%
- RRT 0.31 impurity ([4]; 92.5% RH-10 d): 0.518%
- RRT 0.36 impurity ([4]; 92.5% RH-10 d): 0.110%
- RRT 0.49 impurity ([4]; 92.5% RH-10 d): 0.206%
- RRT 0.72 impurity ([4]; 92.5% RH-10 d): 0.246%
- RRT 1.00 (purity by HPLC) ([4]; 92.5% RH-10 d): 98.358%
- RRT 1.14 impurity ([4]; 92.5% RH-10 d): 0.073%
- RRT 1.33 impurity ([4]; 92.5% RH-10 d): 0.066%
- Total impurity ([4]; 92.5% RH-10 d): 1.642%
- Maximum individual impurity ([4]; 92.5% RH-30 d): 0.475%
- RRT 0.31 impurity ([4]; 92.5% RH-30 d): 0.475%
- RRT 0.36 impurity ([4]; 92.5% RH-30 d): 0.099%
- RRT 0.49 impurity ([4]; 92.5% RH-30 d): 0.137%
- RRT 0.72 impurity ([4]; 92.5% RH-30 d): 0.243%
- RRT 1.00 (purity by HPLC) ([4]; 92.5% RH-30 d): 98.499%
- RRT 1.14 impurity ([4]; 92.5% RH-30 d): 0.075%
- RRT 1.33 impurity ([4]; 92.5% RH-30 d): 0.056%
- Total impurity ([4]; 92.5% RH-30 d): 1.501%
